Data: ChEMBL document CHEMBL4152300, “Discovery of the selective and efficacious inhibitors of FLT3 mutations” (Eur J Med Chem, 2018)

Legend:
MV4-11 [1] = experiment: Induction of apoptosis in human MV4-11 cells assessed as early apoptotic cells at 0.2 uM after 24 hrs by Annexin V-FITC/propidium iodide staining based flow cytometry (reference value: 0%); format: functional
HL-60 = experiment: Growth inhibition of human HL60 cells expressing low levels of FLT3 after 72 hrs by Cell-Titer Glo assay; format: functional, cell-based; conditions: HL-60, 72 h
[2] = target: T1, Receptor-type tyrosine-protein kinase FLT3 (Homo sapiens, UniProt P36888); experiment: Inhibition of human FLT3 R595_E596 mutant by Hotspot assay
Target sequence in this assay (P36888 27-993 limits assumed): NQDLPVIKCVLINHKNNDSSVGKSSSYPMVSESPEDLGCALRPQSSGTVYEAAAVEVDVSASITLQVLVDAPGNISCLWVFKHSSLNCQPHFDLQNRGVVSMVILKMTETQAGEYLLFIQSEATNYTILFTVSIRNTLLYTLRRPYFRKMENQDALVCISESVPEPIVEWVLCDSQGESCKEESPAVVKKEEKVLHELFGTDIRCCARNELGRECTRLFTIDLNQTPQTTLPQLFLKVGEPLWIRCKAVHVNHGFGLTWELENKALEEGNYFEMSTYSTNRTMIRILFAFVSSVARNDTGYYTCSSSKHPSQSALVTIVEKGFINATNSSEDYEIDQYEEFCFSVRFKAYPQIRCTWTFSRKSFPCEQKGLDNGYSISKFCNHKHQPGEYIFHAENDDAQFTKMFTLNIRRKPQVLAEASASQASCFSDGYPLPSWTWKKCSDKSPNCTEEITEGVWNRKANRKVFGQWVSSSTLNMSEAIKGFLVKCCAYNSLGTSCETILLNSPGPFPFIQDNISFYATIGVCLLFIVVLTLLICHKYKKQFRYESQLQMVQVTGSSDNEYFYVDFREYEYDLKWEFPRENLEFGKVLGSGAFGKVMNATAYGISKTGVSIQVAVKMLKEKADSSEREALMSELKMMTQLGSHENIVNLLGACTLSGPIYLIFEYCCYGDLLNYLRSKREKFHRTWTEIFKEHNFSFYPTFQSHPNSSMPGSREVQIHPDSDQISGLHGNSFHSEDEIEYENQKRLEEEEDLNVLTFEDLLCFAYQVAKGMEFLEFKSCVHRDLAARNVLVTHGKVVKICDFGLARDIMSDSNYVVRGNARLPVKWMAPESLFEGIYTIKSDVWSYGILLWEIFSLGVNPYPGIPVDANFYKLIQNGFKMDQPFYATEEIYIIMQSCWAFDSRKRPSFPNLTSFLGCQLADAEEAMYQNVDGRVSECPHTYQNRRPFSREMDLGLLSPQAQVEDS

[3] = target: Vascular endothelial growth factor receptor 2 (Homo sapiens, UniProt P35968); experiment: Inhibition of human KDR by Hotspot assay
MV4-11 [4] = experiment: Induction of apoptosis in human MV4-11 cells assessed as late apoptotic cells at 0.5 uM after 24 hrs by Annexin V-FITC/propidium iodide staining based flow cytometry (reference value: 0%); format: functional
[5] = target: Mast/stem cell growth factor receptor Kit (Homo sapiens, UniProt P10721); experiment: Inhibition of human KIT at 0.123 uM by Hotspot assay
[6] = target: T1, Receptor-type tyrosine-protein kinase FLT3; experiment: Inhibition of FLT3 in human MV4-11 cells assessed as reduction in AKT phosphorylation at Ser473 residue after 4 hrs by Western blot analysis; format: cell-based
Target sequence in this assay (P36888 whole entry): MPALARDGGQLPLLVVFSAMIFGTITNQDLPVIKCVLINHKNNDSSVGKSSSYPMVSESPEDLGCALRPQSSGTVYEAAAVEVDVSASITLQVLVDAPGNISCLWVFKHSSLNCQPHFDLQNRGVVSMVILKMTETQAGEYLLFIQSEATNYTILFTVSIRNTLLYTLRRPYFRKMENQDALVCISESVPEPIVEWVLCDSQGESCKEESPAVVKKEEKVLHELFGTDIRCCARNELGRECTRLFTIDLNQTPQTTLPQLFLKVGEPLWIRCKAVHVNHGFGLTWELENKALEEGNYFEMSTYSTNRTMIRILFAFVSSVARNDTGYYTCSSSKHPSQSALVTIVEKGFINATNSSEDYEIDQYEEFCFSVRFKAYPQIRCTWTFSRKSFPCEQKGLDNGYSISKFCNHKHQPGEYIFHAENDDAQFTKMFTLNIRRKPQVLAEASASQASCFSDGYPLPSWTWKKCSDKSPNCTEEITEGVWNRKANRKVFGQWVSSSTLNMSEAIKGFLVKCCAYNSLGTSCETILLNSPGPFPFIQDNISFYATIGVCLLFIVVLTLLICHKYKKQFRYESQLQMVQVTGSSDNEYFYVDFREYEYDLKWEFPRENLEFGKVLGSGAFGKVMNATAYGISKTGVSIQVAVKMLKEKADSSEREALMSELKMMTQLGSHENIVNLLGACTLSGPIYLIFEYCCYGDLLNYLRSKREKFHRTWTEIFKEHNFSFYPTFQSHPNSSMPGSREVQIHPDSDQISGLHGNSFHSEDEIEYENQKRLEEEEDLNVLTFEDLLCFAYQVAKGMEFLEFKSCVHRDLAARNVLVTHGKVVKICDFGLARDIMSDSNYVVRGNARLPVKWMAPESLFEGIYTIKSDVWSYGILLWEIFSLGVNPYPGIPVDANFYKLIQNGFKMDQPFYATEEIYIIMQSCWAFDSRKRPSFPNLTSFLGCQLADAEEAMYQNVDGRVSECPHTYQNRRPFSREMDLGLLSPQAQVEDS

MV4-11 [7] = experiment: Induction of apoptosis in human MV4-11 cells assessed as necrotic cells at 0.2 uM after 24 hrs by Annexin V-FITC/propidium iodide staining based flow cytometry (reference value: 0%); format: functional
MV4-11 [8] = experiment: Induction of apoptosis in human MV4-11 cells assessed as live cells at 0.2 uM after 24 hrs by Annexin V-FITC/propidium iodide staining based flow cytometry (reference value: 100%); format: functional
[9] = target: Receptor-type tyrosine-protein kinase FLT3 (Homo sapiens, UniProt P36888, ITD); experiment: Inhibition of human FLT3 ITD-W51 mutant by Hotspot assay
MV4-11 [10] = experiment: Induction of apoptosis in human MV4-11 cells assessed as live cells at 0.5 uM after 24 hrs by Annexin V-FITC/propidium iodide staining based flow cytometry (reference value: 100%); format: functional
MV4-11 [11] = experiment: Induction of apoptosis in human MV4-11 cells after 24 hrs by Annexin V-FITC/propidium iodide staining based flow cytometry; format: functional, cell-based

Chain of Receptor-type tyrosine-protein kinase FLT3 (Homo sapiens, UniProt P36888, ITD) (P36888 whole entry, looked up, change not shown): as the sequence (P36888 whole entry) above
Chain of Mast/stem cell growth factor receptor Kit (P10721 whole entry): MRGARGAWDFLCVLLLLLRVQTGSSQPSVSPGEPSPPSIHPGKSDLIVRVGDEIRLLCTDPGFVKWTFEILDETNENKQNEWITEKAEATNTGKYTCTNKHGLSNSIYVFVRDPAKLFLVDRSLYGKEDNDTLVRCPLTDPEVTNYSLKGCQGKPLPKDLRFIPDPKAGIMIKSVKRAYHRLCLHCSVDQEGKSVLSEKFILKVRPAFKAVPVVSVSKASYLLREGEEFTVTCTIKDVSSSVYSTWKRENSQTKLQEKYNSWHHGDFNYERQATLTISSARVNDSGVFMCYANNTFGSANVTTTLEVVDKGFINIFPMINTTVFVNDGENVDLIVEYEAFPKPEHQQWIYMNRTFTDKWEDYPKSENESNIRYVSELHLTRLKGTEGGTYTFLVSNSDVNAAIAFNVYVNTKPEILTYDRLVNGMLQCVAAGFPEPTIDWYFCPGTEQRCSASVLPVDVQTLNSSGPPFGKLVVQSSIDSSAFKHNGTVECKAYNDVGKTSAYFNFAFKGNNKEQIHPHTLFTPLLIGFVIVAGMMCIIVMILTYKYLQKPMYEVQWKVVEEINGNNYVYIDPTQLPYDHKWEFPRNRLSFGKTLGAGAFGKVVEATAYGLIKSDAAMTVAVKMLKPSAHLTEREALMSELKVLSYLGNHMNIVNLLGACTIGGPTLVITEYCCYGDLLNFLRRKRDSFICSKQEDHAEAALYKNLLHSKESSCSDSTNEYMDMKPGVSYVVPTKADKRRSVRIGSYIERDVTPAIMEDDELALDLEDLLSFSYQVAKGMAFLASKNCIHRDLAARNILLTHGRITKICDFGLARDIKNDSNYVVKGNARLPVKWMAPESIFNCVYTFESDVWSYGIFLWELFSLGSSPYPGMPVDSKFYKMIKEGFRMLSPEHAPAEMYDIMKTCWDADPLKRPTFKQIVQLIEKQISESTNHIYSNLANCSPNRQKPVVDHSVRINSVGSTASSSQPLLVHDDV
Chain of Vascular endothelial growth factor receptor 2 (P35968 whole entry): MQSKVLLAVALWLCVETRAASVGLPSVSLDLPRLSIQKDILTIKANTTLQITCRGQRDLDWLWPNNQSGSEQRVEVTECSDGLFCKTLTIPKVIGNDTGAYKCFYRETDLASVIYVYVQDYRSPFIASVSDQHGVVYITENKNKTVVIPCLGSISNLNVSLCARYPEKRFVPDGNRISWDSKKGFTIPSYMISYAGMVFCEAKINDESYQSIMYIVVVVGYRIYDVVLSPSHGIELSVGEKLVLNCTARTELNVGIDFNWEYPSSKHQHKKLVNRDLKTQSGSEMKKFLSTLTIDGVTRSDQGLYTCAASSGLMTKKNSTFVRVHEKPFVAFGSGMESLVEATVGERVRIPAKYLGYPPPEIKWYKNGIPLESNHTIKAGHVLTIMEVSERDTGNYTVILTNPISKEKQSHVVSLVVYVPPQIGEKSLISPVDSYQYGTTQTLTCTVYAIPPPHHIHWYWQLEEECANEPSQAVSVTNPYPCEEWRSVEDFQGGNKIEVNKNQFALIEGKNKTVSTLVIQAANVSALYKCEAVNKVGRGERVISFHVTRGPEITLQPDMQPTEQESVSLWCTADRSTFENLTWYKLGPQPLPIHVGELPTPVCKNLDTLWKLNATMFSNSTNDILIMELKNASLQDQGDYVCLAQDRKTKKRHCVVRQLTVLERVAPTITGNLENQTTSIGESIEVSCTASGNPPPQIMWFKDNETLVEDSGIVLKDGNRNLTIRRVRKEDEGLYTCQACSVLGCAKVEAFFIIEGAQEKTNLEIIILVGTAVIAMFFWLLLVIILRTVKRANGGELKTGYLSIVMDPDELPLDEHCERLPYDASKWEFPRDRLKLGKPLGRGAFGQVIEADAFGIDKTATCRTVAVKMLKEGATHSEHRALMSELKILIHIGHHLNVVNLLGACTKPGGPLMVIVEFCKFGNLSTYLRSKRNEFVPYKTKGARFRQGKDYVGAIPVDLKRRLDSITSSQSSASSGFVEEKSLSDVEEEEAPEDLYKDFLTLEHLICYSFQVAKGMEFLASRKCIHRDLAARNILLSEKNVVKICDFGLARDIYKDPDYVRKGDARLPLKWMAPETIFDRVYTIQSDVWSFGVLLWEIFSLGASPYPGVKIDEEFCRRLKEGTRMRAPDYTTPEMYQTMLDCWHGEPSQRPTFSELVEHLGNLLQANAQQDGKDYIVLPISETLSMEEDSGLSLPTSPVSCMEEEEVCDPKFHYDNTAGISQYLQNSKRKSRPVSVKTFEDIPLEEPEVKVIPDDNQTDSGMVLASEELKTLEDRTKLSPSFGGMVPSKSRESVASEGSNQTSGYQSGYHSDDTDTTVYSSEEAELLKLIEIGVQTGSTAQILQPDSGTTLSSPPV

Cc1nc2c(c(Nc3c[nH]nc3C(=O)Nc3ccc(N4CCNCC4)cc3)n1)CCC2
Activity (MV4-11 [1]): 23%
IC50 (HL-60): 26700 nM
IC50 [2]: 8.74 nM
IC50 [3]: 94.6 nM
Activity (MV4-11 [4]): 9.77%
inhibition (INH) [5]: Not Active
inhibition [6]: Dose-dependent effect
Activity (MV4-11 [7]): 1.92%
Activity (MV4-11 [8]): 62.2%
IC50 [9]: 12.8 nM
Activity (MV4-11 [10]): 29%
Activity (MV4-11 [11]): Dose-dependent effect
